Reference: publication PMC6470953, “Symmetrical Modification of Minimized Dermaseptins to Extend the Spectrum of Antimicrobials with Endotoxin Neutralization Potency” (International Journal of Molecular Sciences, 2019)
Where no end group is shown, it is not given here.

Legend:
S. pullorum C79-13 = test: MIC assay, S. pullorum C79-13; assay type: cell-based; details: two-fold dilution in 96-well plates, MHB, 2-7 × 10^5 CFU/mL, 18–24 h, 37 °C
Procedure: (§1) MIC measurements were performed in 96-well plates. The peptides were dissolved in 0.2% bovine serum albumin and 0.01% acetic acid, and an appropriate broth was subjected to a series of two-fold dilutions. The final concentration of microbial suspensions was from 2 × 10^5 to 7 × 10^5 colony forming units (CFU)∙mL^−1. Key parameters were volume (50 μL bacterial suspension + 50 μL peptide solution), incubating time (18–24 h), and temperature (37 °C). Each test was performed in three replicates on at least two independent occasions. The Mueller Hilton broth (MHB) (AoBoX, Shanghai, China) without or with microbial cells was regarded as the negative control or positive control, respectively. MICs were recorded at the lowest peptide concentration without visible turbidity and spectrophotometrically by measuring the optical density (OD) at 492 nm (Tecan, Salzburg, Austria).

E. coli ATCC25922 = test: MIC assay, E. coli ATCC25922; assay type: cell-based; details: two-fold dilution in 96-well plates, MHB, 2-7 × 10^5 CFU/mL, 18–24 h, 37 °C, three replicates on at least two occasions
Procedure: as §1

[1] = tested on: murine macrophage cell line (RAW264.7); test: MTT cytotoxicity assay, RAW264.7; assay type: cell-based; details: RAW264.7, peptide 64 μM, 18–24 h, 37 °C, OD 570 nm, n = 3
Procedure: (§2) The Roswell Park Memorial Institute-1640 (RPMI-1640) (Invitrogen, Carlsbad, CA, USA) and Dulbecco’s modified Eagle’s medium-high glucose (DMEM) (Gibco, China) were supplemented with 100 μg∙mL^−1 streptomycin sulfate, 100 U∙mL^−1 penicillin, and 10% (v/v) fetal bovine serum (Hyclone, Logan, UT, USA). These were used to culture the RAW264.7 and HEK293T cells, respectively. The peptides were added to cell cultures (1.0–2.0 × 10^4 cells/well) at different final concentrations (1–64 µM) in 96-well plates for 18–24 h at 37 °C in 5% CO2, and 3-(4,5-dimethylthiazol-2-yl)-2,5-diphenyltetrazolium bromide (MTT) (50 µL, 0.5 mg∙mL^−1) was injected and incubated with cell cultures for 4 h at 37 °C. Finally, the centrifuged cells without the supernatants were mixed with 150 µL of dimethyl sulfoxide to dissolve the formazan crystals that formed. The optical density (OD) was recorded by a microplate reader (Tecan, Salzburg, Austria) at 570 nm.

S. faecalis ATCC 29212 = test: MIC assay, S. faecalis ATCC 29212; assay type: cell-based; details: two-fold dilution in 96-well plates, MHB, 2-7 × 10^5 CFU/mL, 18–24 h, 37 °C
Procedure: as §1

[2] = tested on: human red blood cells (hRBCs); test: Hemolytic activity assay; assay type: cell-based; details: lowest peptide concentration that induces 5% hemolysis; hRBCs in PBS pH 7.4, 1 h, 37 °C, OD570
Procedure: Hemolytic activity measurements were performed to evaluate the effect of peptides on hemoglobin release levels by erythrocyte lysis. The experimental protocol was reviewed and approved by the ethics committee of the Northeast Agricultural University Hospital, and the experimental method was carried out in accordance with the approved guidelines and regulations. A total of 1 mL of fresh hRBCs was collected and diluted 10-fold with PBS (pH 7.4). A quantity of 50 μL of the hRBCs solution was incubated with 50 μL of serially diluted peptides dissolved in PBS for 1 h at 37 °C. hRBC suspension treated with 0.1% Triton X-100 was employed as a positive control and an untreated hRBC suspension was used as a negative control. A total of 50 μL of the supernatant was collected from the mixture after centrifugation (1000g, 5 min, 4 °C) and transferred to a new 96-well microplate. The percent hemolysis was calculated using the following equation: Hemolysis (%) = [(OD570 of the treated sample — OD570 of the negative control)/(OD570 of the positive control — OD570 of the negative control)] × 100%.

B. subtilis CMCC 63501 = test: MIC assay, B. subtilis CMCC 63501; assay type: cell-based; details: two-fold dilution in 96-well plates, MHB, 2-7 × 10^5 CFU/mL, 18–24 h, 37 °C
Procedure: as §1

[3] = tested on: S. epidermidis ATCC 12228; test: MIC assay, S. epidermidis ATCC 12228; assay type: cell-based; details: two-fold dilution in 96-well plates, MHB, 2-7 × 10^5 CFU/mL, 18–24 h, 37 °C
Procedure: as §1

S. aureus ATCC 29213 = test: MIC assay, S. aureus ATCC 29213; assay type: cell-based; details: two-fold dilution in 96-well plates, MHB, 2-7 × 10^5 CFU/mL, 18–24 h, 37 °C
Procedure: as §1

E. coli UB1005 = test: MIC assay, E. coli UB1005; assay type: cell-based; details: two-fold dilution in 96-well plates, MHB, 2-7 × 10^5 CFU/mL, 18–24 h, 37 °C
Procedure: as §1

[4] = tested on: S. typhimurium ATCC 14028; test: MIC assay, S. typhimurium ATCC 14028; assay type: cell-based; details: two-fold dilution in 96-well plates, MHB, 2-7 × 10^5 CFU/mL, 18–24 h, 37 °C
Procedure: as §1

P. aeruginosa ATCC 27853 = test: MIC assay, P. aeruginosa ATCC 27853; assay type: cell-based; details: two-fold dilution in 96-well plates, MHB, 2-7 × 10^5 CFU/mL, 18–24 h, 37 °C
Procedure: as §1

[5] = tested on: human embryonic kidney cells (HEK293T); test: MTT cytotoxicity assay, HEK293T; assay type: cell-based; details: peptide 64 μM, 18–24 h, 37 °C, OD 570 nm, n = 3
Procedure: as §2

[6] = LPS binding, BODIPY-TR cadaverine displacement assay; set-up: species or system E. coli; details: LPS 100 ng/mL, peptide 1.25–40 μg/mL, 1 h, 37 °C, Tris pH 7.4
Procedure: BODIPY-TR-cadaverine fluorescent dye (BC, Sigma, USA) was used to determine the LPS neutralizing activity of the peptides. A total of 100 ng/mL LPS from E. coli O111:B4 was incubated with 5 μg/mL BC in Tris buffer (50 mM, pH 7.4) for 4 h at room temperature. The peptides were serially diluted to different concentrations (1.25–40 μg/mL) in a 96-well plate and incubated with an equal volume of the LPS-probe mixture for 1 h at 37 °C. The fluorescence was recorded (excitation λ = 580 nm, emission λ = 620 nm) with a spectrofluorophotometer (the Infinite 200 pro, Tecan, China). The values were converted to %ΔF (AU) using the following equation:%ΔF (AU) = (Fobs − F0) / (F100 − F0) × 100 where F0 is the initial fluorescence of BC with LPS; F100 is the BC fluorescence with LPS cells upon the addition of 10 μg∙mL^−1 polymyxin B (the positive control); and Fobs is the observed fluorescence at a given peptide concentration.

[7] = tested on: Gram-negative and Gram-positive bacteria; test: Geometric mean of MIC values over the bacteria tested; assay type: cell-based; details: MIC >128 μM counted as 256 μM
Procedure: as §1

E. coli ATCC 25922 = test: FACScan membrane integrity analysis (propidium iodide); assay type: cell-based; details: E. coli ATCC 25922, 10 μg/mL PI, 4 °C, 30 min, flow cytometry
Procedure: The membrane integrity measurements were performed with a FACScan instrument (Bectone-Dickinson, San Jose, CA, USA) by using a modified method as described previously. […] As a control, bacteria were exposed to PBS without the peptide. The gate (P1) was defined based on the FSC and SSC properties of E. coli. The FSC threshold was appropriately raised to include the large cell events in the sample and excluded the debris population. Data acquisition was performed using […] Software (Becton Dickinson, San Jose, CA, USA) with a stopping gate of 10,000 total events. Observations were repeated three times at a laser excitation wavelength of 488 nm. Based on the ability of flow cytometers to provide accurate quantification of cell numbers, the counts of PI-positive cells were measured for each peptide.

interleukin-1β(IL-1β) = test: LPS-induced IL-1β gene expression (qRT-PCR) in RAW264.7; assay type: cell-based, murine; details: RAW264.7, 100 ng/mL LPS, peptide 10 μg/mL, n = 3
Procedure: (§3) The RAW264.7 cell culture was prepared using the same method as the cytotoxicity assay. The cells were seeded in 12 wells plates at a given density (5 × 10^5 cells per well); after overnight culture, 100 ng·mL^−1 LPS from E. coli 0111:B4 was added to stimulate the generation of cytokines in the presence or absence of the peptides at concentrations of 10 μg·mL^−1. The mRNA levels of IL-6 and IL-1β were determined by quantitative real-time PCR(qRT-PCR) as previously described. The total RNA was isolated from the RAW264.7 cells using TRIzol according to the manufacturer’s instructions. Total RNA (1 µg) was reverse transcribed by the M-MLV Reverse Transcriptase (Thermo scientific, Waltham, MA, USA). The reactions were incubated in chronological arrangement with the following parameters: at 25 °C for 20 min, at 42 °C for 60 min, and at 70 °C for 10 min. The obtained cDNA samples were determined by qRT-PCR with SYBR green I fluorescence dye (Takara Bio Inc., Kusatsu, Japan). Relative quantifications of the mRNA expression of the target genes were calculated through the comparative threshold cycle number for each sample (2^−ΔΔCT). Gene expression was normalized to the corresponding β-actin level. The primers for qRT-PCR in this study are shown below: IL-6-F: […]; IL-6-R: […]; IL-1β-F: […]; and IL-1β-R: […].

interleukin-6(IL-6) = test: LPS-induced IL-6 gene expression (qRT-PCR) in RAW264.7; assay type: cell-based, murine; details: RAW264.7, 100 ng/mL LPS, peptide 10 μg/mL, n = 3
Procedure: as §3

Compound	MIC (S. pullorum C79-13)	MIC (E. coli ATCC25922)	cell survival rate [1]	MIC (S. faecalis ATCC 29212)	MHC5 (minimum hemolysis concentration 5%) [2]	MIC (B. subtilis CMCC 63501)	MIC [3]	MIC (S. aureus ATCC 29213)	MIC (E. coli UB1005)	MIC [4]	MIC (P. aeruginosa ATCC 27853)	cell survival rate [5]	binding to LPS, %ΔF (AU) of BODIPY-TR cadaverine [6]	GM (geometric mean of MIC values) [7]	percentage of PI-positive cells (E. coli ATCC 25922; 1/2 × MIC)	percentage of PI-positive cells (E. coli ATCC 25922; 1 × MIC)	gene expression of IL-1β in LPS-treated cells (interleukin-1β(IL-1β))	gene expression of IL-6 in LPS-treated cells (interleukin-6(IL-6))
WVKAAAKAAAKVW-NH2 [WV]	64 µM	32 µM	93%	64 µM	>256 µM	>128 µM	>128 µM	>128 µM	>128 µM	>128 µM	>128 µM	93%						
WFKAAAKAAAKFW-NH2 [WF]	8 µM	4 µM	92%	32 µM	256 µM	8 µM	16 µM	8 µM	4 µM	32 µM	16 µM	91%						
WIKAAAKAAAKIW-NH2 [WI]	8 µM	8 µM	100%	32 µM	256 µM	8 µM	32 µM	32 µM	8 µM	32 µM	32 µM	96%						
WWKAAAKAAAKWW-NH2 [WW]	2 µM	2 µM	63%	4 µM	256 µM	4 µM	4 µM	4 µM	4 µM	8 µM	8 µM	43%						
CC[C@H](C)[C@H](NC(=O)CN)C(=O)NCC(=O)N[C@@H](C)C(=O)N[C@H](C(=O)N[C@@H](CC(C)C)C(=O)N[C@@H](CCCCN)C(=O)N[C@H](C(=O)N[C@@H](CC(C)C)C(=O)N[C@H](C(=O)N[C@H](C(=O)NCC(=O)N[C@@H](CC(C)C)C(=O)N1CCC[C@H]1C(=O)N[C@@H](C)C(=O)N[C@@H](CC(C)C)C(=O)N[C@H](C(=O)N[C@@H](CO)C(=O)N[C@@H](Cc1c[nH]c2ccccc12)C(=O)N[C@H](C(=O)N[C@@H](CCCCN)C(=O)N[C@@H](CCCNC(=N)N)C(=O)N[C@@H](CCCCN)C(=O)N[C@@H](CCCNC(=N)N)C(=O)N[C@@H](CCC(N)=O)C(=O)N[C@@H](CCC(N)=O)C(N)=O)[C@@H](C)CC)[C@@H](C)CC)[C@@H](C)O)[C@@H](C)O)C(C)C)C(C)C [Melittin]													concentration-dependent increase	1.3 µM	50.5%	77.5%	markedly decreased	markedly decreased
